Data reported in patent US20070248705A1, “Agents for Activating the Transcription Factor Nrf2 and Foods Having Such Function” (KIRIN BEER KABUSHIKI KAISHA, priority 2004, published 2007).
Entries after “also recorded” stand apart in the source; their conditions may differ.

Legend:
[1] = tested on: quinone reductase (QR) activity in mouse hepatoma Hepa1c1c7 cells; assay: Induction of quinone reductase (QR) activity; type: cell-based; settings: Hepa1c1c7 cells, 0.6, 1.7, 5, and 15 μM, 48 hours
Experimental: It has been known that quinone reductase (QR) activity is increased by increasing the expression of NAD(P)H:quinone oxidoreductase (NQO1) by Nrf2 activation (Proc Natl Acad Sci USA. 101, 10446-51 (2004)). Accordingly, isohumulones were allowed to act on mouse hepatoma Hepa1c1c7 cells (available from Dainippon Pharmaceutical Co., Ltd.) to examine whether the QR activity was induced.
The QR activity was measured in accordance with the method described in Analytical Biochemistry 169, 328-336 (1988).
A mouse hepatoma cell line Hepa1c1c7 was seeded on a 96-well plate (7-10×10^3 cells/well), 50 μl each of an α-MEM medium (Invitrogen) supplemented with 10% fetal bovine serum (HyClone) and penicillin-streptomycin (100 units/ml and 100 μg/ml, respectively; Sigma) was added, and the plate was incubated at […] in an atmosphere of 5% CO2 overnight. Next, the culture medium was replaced with a medium containing isomerized hop extract individually at a concentration of 1.9, 5.6, 16.7, or 50 μg/ml, or with a medium containing humulone (H), cohumulone (cH), adhumulone (aH), isohumulone (IH), isohumulone (IcH), or isohumulone (IaH) individually at a concentration of 0.6, 1.7, 5, and 15 μM and the plate was further incubated for 48 hours. Then, the cells in each well were broken using 0.08% digitonin and a 2 mM EDTA solution and absorption at 610 nm was measured by a menadione-formazan system using a microplate reader (Power Wave 200, Bio-Tek Instruments).
The QR inducing activity was calculated as a relative activity setting the activity of cells without addition to be 1 (n=3, mean±standard variation). Sulforaphane (Sul, available from Sigma) was used as a positive control.

[2] = tested on: ICAM-1; assay: ICAM-1 expression in vascular endothelial cells (HAEC), TNF-α stimulation, flow cytometry; type: cell-based, human; settings: TNF-α 1.25 ng/ml
Experimental: Normal human aorta endothelial cells (HAEC, available from Cambrex) were cultured in a φ100 mm dish using 10 ml of endothelial cell medium kit-2 (Takara Shuzo) at 37° C. in an atmosphere of 5% CO2. Here, 30 μg/ml isomerized hop extract, 10 μM sulforaphane (Sul), or 10 mM N-acetyl cysteine (NAC) was allowed to act overnight. Next, after stimulating with the addition of human TNF-α (ProSpec-Tany TechnoGene) at a final concentration of 1.25 ng/ml), the cells were detached using a reagent for subculturing (Takara Shuzo) and flow cytometry analysis was carried out. Here, biotin anti-human ICAM antibody or biotin anti-human VCAM antibody (available from eBioscience) was used as a primary antibody and PE conjugated streptavidin (available from eBioscience) was used as a secondary antibody. A flow cytometer used was a FACSort analyzer (Becton Dickinson).

[3] = tested on: mouse macrophage cell line RAW264.7; assay: Amount of intracellular glutathione; type: cell-based; settings: RAW264.7, 3 μM, positive control
Experimental: A mouse macrophage cell line RAW264.7 was seeded on a φ60 mm dish (7×10^5 cells), 2 ml of a D-MEM medium (Invitrogen) supplemented with 10% fetal bovine serum (HyClone) and penicillin-streptomycin (100 units/ml and 100 μg/ml, respectively; Sigma) was added, and the dish was incubated at 37° C. in an atmosphere of 5% CO2 for 2 days. The medium was replaced with a fresh medium containing individual samples and incubation was continued for another 20 hours. The samples added were isohumulone (IH(F)) and isohumulone (IcH(G)) at a concentration of 25 μM. The cells were recovered, broken by ultrasonication, and centrifuged to obtain the supernatant, and the amount of the total intracellular glutathione was measured using a glutathione assay kit (Cayman Chemical) (n=2, mean±standard deviation). As a positive control, 15dPGJ2 (Cayman Chemical) was used.

[4] = tested on: glutathione S-transferase mu1 (GSTM1); assay: Expression of genes controlled by Nrf2 in RAW264.7: GSTM1; type: cell-based, mouse; settings: RAW264.7, 3 μM, positive control
Experimental: (§1) A mouse macrophage cell line RAW264.7 was seeded on a φ60 mm dish (9×10^5 cells), 2 ml of a D-MEM medium (Invitrogen) supplemented with 10% fetal bovine serum (HyClone) and penicillin-streptomycin (100 units/ml and 100 μg/ml, respectively; Sigma) was added, and the dish was incubated at 37° C. in an atmosphere of 5% CO2 for 2 days. The medium was replaced with a fresh medium containing individual samples and incubation was continued for another 20 hours. Then, the total RNA was prepared using TRIzol (Invitrogen) and purified using a RNeasy Mini kit (Qiagen) and an RNase-free DNase set (Qiagen). Further, cDNA was synthesized from 5 μg of the purified total RNA using a Thermo Script RT-PCR system (Invitrogen), and the amount of mRNA expression of various genes was determined using a FastStart DNA Master SYBR Green I kit (Roche) and a Light Cycler (Roche).
(§2) The amount of expression of the various genes was corrected by the amount of expression of the housekeeping gene PO and calculated as a relative expression level (n=2, mean±standard deviation). […]

[5] = tested on: glucose-6-phosphate dehydrogenase, X-linked (G6PDX); assay: Expression of genes controlled by Nrf2 in RAW264.7: G6PDX; type: cell-based, mouse; settings: RAW264.7, 3 μM, positive control
Experimental: as §1, §2

[6] = tested on: glucose-6-phosphate dehydrogenase 2 (G6PD2); assay: Expression of genes controlled by Nrf2 in RAW264.7: G6PD2; type: cell-based, mouse; settings: RAW264.7, 3 μM, positive control
Experimental: as §1, §2

[7] = tested on: CD36; assay: Expression of genes controlled by Nrf2 in RAW264.7: CD36; type: cell-based, mouse; settings: RAW264.7, 3 μM, positive control
Experimental: as §1, §2

[8] = tested on: catalase 1 (CAT1); assay: Expression of genes controlled by Nrf2 in RAW264.7: CAT1; type: cell-based, mouse; settings: RAW264.7, 3 μM, positive control
Experimental: as §1, §2

[9] = tested on: heme oxygenase 1 (HO1); assay: Expression of genes controlled by Nrf2 in RAW264.7: HO1; type: cell-based, mouse; settings: RAW264.7, 3 μM, positive control
Experimental: as §1, §2

[10] = tested on: TNF-α; assay: Suppression of TNF-α production by macrophages (TPA and IFN-γ); type: cell-based, mouse; settings: RAW264.7, TPA 400 nM and IFN-γ 10 units/ml, positive control
Experimental: A mouse macrophage cell line RAW264.7 (4×10^4 cells/well) was seeded on a 96-well plate, […] of a D-MEM medium (Invitrogen) containing each sample, 10% fetal bovine serum (HyClone), and penicillin-streptomycin (100 units/ml and 100 μg/ml, respectively; Sigma) was added, and the plate was incubated at 37° C. in an atmosphere of 5% CO2 for 4 hours. Then 150 μl of a medium containing TPA (phorbol 12-tetradecanoate 13-acetate, Sigma), mouse IFN-γ (interferon-γ, eBioscience), and each sample was added and incubation was carried out for 24 hours. TPA and IFN-γ were added at a final concentration of 400 nM and 10 units/ml, respectively. As samples, isomerized hop extract was added at a concentration of 5, 10, 20, and 30 μ/ml and isohumulone (IH(F)) and isohumulone (IcH(G)) were added individually at a concentration of 5, 10, 20, and 40 μM.
After completing incubation, the amount of TNF-α in the culture fluid was measured using a mouse TNF-α ELISA kit(eBioscience). The amount of TNF-α was expressed as a relative value by setting the value for the control as 100% (n=3, mean±standard variation). As a positive control, 15dPGJ2 (Cayman Chemical) was used.

[11] = tested on: glutathione S-transferase pi2 (GSTP2); assay: Expression of genes controlled by Nrf2 in RAW264.7: GSTP2; type: cell-based, mouse; settings: RAW264.7, 3 μM, positive control
Experimental: as §1, §2

[12] = tested on: mouse macrophage cell line RAW264.7; assay: Suppressive action on cell death by hydrogen peroxide; type: cell-based; settings: RAW264.7, 3 μM, positive control
Experimental: A mouse macrophage cell line RAW264.7 (6×10^4 cells/well) was incubated on a 96-well plate in 100 μl of a D-MEM medium (Invitrogen) containing individual samples, 10% fetal bovine serum (HyClone), and penicillin-streptomycin (100 units/ml and 100 μg/ml, respectively; Sigma) at 37° C. in an atmosphere of 5% CO2 overnight. The samples added were isohumulone (IH(F)) and isohumulone (IcH(G)) at a concentration of 25 μM. Hydrogen peroxide (Wako Pure Chemical Industries) was added hereto at a final concentration of 0.8 or 1.0 mM and incubation was continued for another 2 hours. Then, adsorption at 440 nm was measured using a microplate reader (Power Wave 200, Bio-Tek Instruments) with a cell growth reagent WST-1 (Roche Diagnostics). The cell survival rate for each sample was calculated by setting the value without hydrogen peroxide as 100% (n=2, mean±standard variation). As a positive control, 15dPGJ2 (Cayman Chemical) was used.

[13] = tested on: glutamate cysteine ligase modifier subunit (GCLM); assay: Expression of genes controlled by Nrf2 in RAW264.7: GCLM; type: cell-based, mouse; settings: RAW264.7, 3 μM, positive control
Experimental: as §1, §2

[14] = tested on: thioredoxin reductase 1 (TXNRD1); assay: Expression of genes controlled by Nrf2 in RAW264.7: TXNRD1; type: cell-based, mouse; settings: RAW264.7, 3 μM, positive control
Experimental: as §1, §2

[15] = tested on: NAD(P)H:quinone oxidoreductase (NQO1); assay: Expression of genes controlled by Nrf2 in RAW264.7: NQO1; type: cell-based, mouse; settings: RAW264.7, 3 μM, positive control
Experimental: as §1, §2

SMILES: CCC(C)C(=O)C1=C(O)C(CC=C(C)C)=C(O)C(O)(CC=C(C)C)C1=O (stereo not drawn) [adhumulone, reference compound]
- QR inducing activity [1]: no clear change

SMILES: CC(=O)N[C@@H](CS)C(=O)O [N-acetyl cysteine]
- expression of ICAM-1 ([2]; 10 mM overnight): Such changes are also recognized

SMILES: CC(C)=CCC(=O)C1(O)C(O)=C(C(=O)C(C)C)C(=O)C1CC=C(C)C (stereo not drawn) [IcH]
- QR inducing activity [1]: higher activity than isohumulone (IaH)
- QR inducing activity ([1]; listed as ICH): Concentration-dependent QR inducing activity

SMILES: C[S+]([O-])CCCCN=C=S (stereo not drawn) [sulforaphane]
- expression of ICAM-1 ([2]; 10 μM overnight): Such changes are also recognized

SMILES: CCCCC/C=C/C=C1/C(=O)C=C[C@@H]1C/C=C\CCCC(=O)O [15dPGJ2, 15-deoxy-D12,14-prostaglandin J2, reference compound]
- amount of the total intracellular glutathione [3]: Increased the amount of the total intracellular glutathione
- expression of GSTM1 [4]: augmented the expression
- expression of G6PDX [5]: augmented the expression
- expression of G6PD2 [6]: augmented the expression
- expression of CD36 [7]: augmented the expression
- expression of CAT1 [8]: augmented the expression
- expression of HO1 [9]: augmented the expression
- TNF-α production [10]: concentration-dependently suppressed
- expression of GSTP2 [11]: augmented the expression
- cell death by hydrogen peroxide (cell survival rate) ([12]; hydrogen peroxide 0.8 mM): suppressed cell death
- cell death by hydrogen peroxide (cell survival rate) ([12]; hydrogen peroxide 1.0 mM): suppressed cell death
- expression of GCLM [13]: augmented the expression
- expression of TRNRD1 [14]: augmented the expression
- expression of NQO1 [15]: augmented the expression

SMILES: CC(C)=CCC(=O)C1(O)C(O)=C(C(=O)CC(C)C)C(=O)C1CC=C(C)C (stereo not drawn) [IH, isohumulone]
- QR inducing activity [1]: Concentration-dependent QR inducing activity; also recorded: higher activity than isohumulone (IaH)

SMILES: CC(C)=CCC1=C(O)C(O)(CC=C(C)C)C(=O)C(C(=O)C(C)C)=C1O (stereo not drawn) [cohumulone, reference compound]
- QR inducing activity [1]: no clear change

SMILES: CCC(C)C(=O)C1=C(O)C(O)(C(=O)CC=C(C)C)C(CC=C(C)C)C1=O (stereo not drawn) [IaH]
- QR inducing activity [1]: Concentration-dependent QR inducing activity

SMILES: CC(C)=CCC(=O)C1(O)C(O)=C(C(=O)CC(C)C)C(=O)C1CC=C(C)C (stereo not drawn) [IH (H), isohumulone]
- QR inducing activity [1]: activity was higher in isohumulones having a higher trans form content

SMILES: CC(C)=CCC(=O)C1(O)C(O)=C(C(=O)CC(C)C)C(=O)C1CC=C(C)C (stereo not drawn) [IH (E), isohumulone]
- QR inducing activity [1]: activity was higher in isohumulones having a higher trans form content
